From paper PMC5423902, “CXCL9-Derived Peptides Differentially Inhibit Neutrophil Migration In Vivo through Interference with Glycosaminoglycan Interactions” (Frontiers in Immunology, 2017)

Columns and labels:
[1] = system: neutrophil adhesion to the endothelium; experiment: CXCL8-induced neutrophil adhesion in the murine cremaster muscle model; format: in vivo, mouse (C57Bl/6J); conditions: 108 µg peptide i.v., Figure 8
Procedure: Mice were anesthetized by intraperitoneal injection of 200 mg/kg ketamine (Bayer Inc. Animal Health) and 10 mg/kg xylazine (Bimeda-MTC). After anesthesia, the right jugular vein was cannulated for maintenance of anesthesia and to permit the delivery of the fluorescence-labeled antibodies. Mice were injected intravenously (via jugular vein) with either saline or CXCL9(74-103) 5 min prior to an intrascrotal injection of 1 or 3 µg CXCL8. The animals were placed on a water-heated operating table to maintain body temperature at ~37°C. The depth of anesthesia was controlled by regularly monitoring peripheral reflexes. The cremaster muscle was prepared as previously described ([50]). […] Single unbranched cremasteric venules with a diameter of ~25–40 μm were selected and their blood flow was recorded during a 5 min period. […] A 512 × 512 pixel back-thinned EMCCD camera (C9100-13, Hamamatsu, Bridgewater, NJ, USA) was used for fluorescence detection. […] Images captured using the spinning disk were processed and analyzed in Volocity 4.20. Periods of 5 min/field of view were recorded at 45, 60, and 90 min after CXCL8 administration. A neutrophil was considered to be adherent if it remained stationary for at least 30 s, and total neutrophil adhesion was quantified as the number of adherent cells within a 100-µm length of venule. […]

[2] = system: CXCL8(1-77) binding to heparin; conditions: compared with CXCL9(74-103) missing 5 to 12 NH2-terminal residues; cited from earlier work
Procedure: To further investigate the role of the COOH-terminal amino acids, the ability of CXCL9(74-93) to inhibit binding of chemokines to heparin and HS was evaluated. CXCL9(74-93) and CXCL9(74-103) together with a COOH-terminal peptide of one of the strongest GAG-binding chemokines, namely, CXCL4(47-70), were compared in an ELISA-like assay to compete with CXCL8 for heparin bind ...

[3] = system: CXCL8-induced neutrophil migration; conditions: CXCL8 into tibiofemoral articulation of C57BL/6 mice; cited from earlier work

Question: For “74KKKQKNGKKHQKKKVLKVRKSQRSRQKKTT103 [CXCL9(74-103), COOH-terminal peptide of CXCL9]”, which “adherence of neutrophils to the endothelium” value ([1]; 1 µg CXCL8 intrascrotal) is on record?
Answer: reduced the adherence of neutrophils to the endothelium significantly

Question: And the “adherence of neutrophils to the endothelium” value ([1]; 3 µg CXCL8 intrascrotal)?
Answer: reduced the adherence of neutrophils to the endothelium significantly

Question: And the “competition with CXCL8 for heparin binding” value [2]?
Answer: more potently competes with CXCL8 for binding to heparin

Question: And the “inhibition of neutrophil chemotactic activity of CXCL8 in the tibiofemoral articulation” value [3]?
Answer: could inhibit the neutrophil chemotactic activity of CXCL8 in vivo
